Columns and labels:
[1] = cited from earlier work
[2] = target: Aβ1-42 monomer assembly into Aβ oligomers (ADDLs) (Homo sapiens (Human), UniProt P05067); experiment: FRET assay of Aβ1-42 oligomer (ADDL) assembly inhibition; format: biochemical
Source text: Fluorescence (or Förster) Resonance Energy Transfer (FRET) is a distance-dependent, non-radiative transfer of energy in which the de-excitation of one fluorophore (donor) is coupled to excitation of another fluorophore (acceptor). FRET occurs if (1) the quantum of energy emitted by a donor fluorophore corresponds to an acceptor fluorophore's excitation energy, (2) the orientations of donor and acceptor transition dipoles are nearly parallel and (3) the donor fluorescent emission spectrum overlaps the acceptor absorption spectrum.
In this assay, assembly of Aβ1-42 oligomer formation is monitored by FRET using N-terminal conjugates of fluorescein-Aβ1-42 as both the donor and acceptor fluorophore (fluorescein-fluorescein Ro˜45 Å). Aβ1-42 monomers assembling into oligomeric species results in a decrease of fluorescence as the fluorescein labeled Aβ1-42 peptides become proximal to each other and FRET efficiency increases. Inhibition of Aβ1-42 assembly is observed as the absence or attenuation of fluorescein quenching.
FRET and FP assays are performed in 384-well Corning Non-Binding Surface, black, opaque microtiter plates, and the assay buffer consists of 50 mM MOPS-Tris (pH 8.0) with 100 mM MgCl2. […] ADDL assembly is monitored on a Tecan GENios Pro plate reader, exciting at a wavelength of 485 nm and detecting emission at a wavelength of 515 nm. […]

[3] = cited from earlier work; remark: listed apart in the source

Sequence of Aβ1-42 monomer assembly into Aβ oligomers (ADDLs) (P05067 672-713): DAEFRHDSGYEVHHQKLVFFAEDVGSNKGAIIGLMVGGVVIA

Compound: NCCCS(=O)(=O)O [Alzhemed, 3-amino-1-propanesulfonic acid]
- cognitive decline ([1]; 20 month open-label extension of Phase II trial, some patients with mild AD): slowed cognitive decline
- efficacy ([1]; blinded phase of the study): no efficacy was observed
- inhibition of Aβ1-42 monomer assembly into Aβ oligomers ([2]; FIG. 2, standard FRET assay conditions of Example 1): inability

Compound: Oc1c(I)cc(Cl)c2cccnc12 [Clioquinol]
- patients' cognitive ability ([3]; compared to untreated patients): stabilize
- Aβ1-42 levels in plasma ([3]; patients' plasma): lower

Compound: CCOC(=O)c1c(NC(=O)C(=O)N/N=C/c2ccccc2O)sc2c1CCC(C)C2 (stereo not drawn) [Compound 4, 2-{[1-(2-Hydroxyphenyl)-meth-(E)-ylidene-hydrazinooxalyl]-amino}-6-methyl-4,5,6,7-tetrahydro-benzo[b]thiophene-3-carboxylic acid ethyl ester]
- inhibition of Aβ1-42 oligomer assembly ([2]; FIG. 1, Test Compound A ranging from 0.05 to 3 mM (0.05 to 3 μM in figure legend)): dose dependent inhibition

Reference: US9006283B2, “Methods of modifying amyloid β oligomers using non-peptidic compounds” (Acumen Pharmaceuticals, Inc., priority 2007, dated 2015)
